# Measurements taken from patent US9206159B2, “Piperazine-piperidine compounds as hepatitis C virus inhibitors” (Theravance Biopharma R&D IP, LLC, priority 2012, dated 2015).
# System: HCV genotype 1a replicon cell line
# Assay: HCV Genotype 1a Replicon Assay
# Type: cell-based, hepatitis C virus
# Details: Hepatitis C virus, Huh7.5 cell background, NS3-specific protease activity in lysates, 48 or 72 hours, read-out: Genotype 1a (pEC50 class) (converted)
# Experimental: Assay 2: HCV Genotype 1a Replicon Assay
# The HCV genotype 1a replicon cell line was obtained from Apath LLC (APC89; Huh7.5 cell background). This subgenomic replicon contains the N-terminus of the HCV core protein fused to the neomycin-resistance selectable marker. The EMCV IRES lies downstream and drives expression of the non-structural proteins NS3-NS5B. Compound potencies were determined using the NS3-specific protease activity in lysates as a measurement of compound inhibition of replicon levels.
# Cells were grown at 37° C. in a 5% CO2 humidified incubator in DMEM (Invitrogen) with 10% FBS (HyClone), 1×NEAA (Invitrogen), 1× Pen-Strep (Invitrogen), and 850 μg/mL G418 (Invitrogen). On day 1 of the assay, cells were plated at 15,000 cells/well in black 96-well tissue culture plates (Costar) in 200 μL media lacking G418. Four hours later, once the cells had adhered, the media was removed and replaced with media (no G418) containing dose-responses of test compounds. Compounds were initially diluted in DMSO and then diluted another 200× in media to bring the final DMSO concentration down to 0.5%. The cells were incubated with test compounds for 48 or 72 hours. At the end of the incubation period, media and compound were removed from the plates.
# To determine the NS3-specific protease activity in lysates, the cells were lysed at room temperature in 50 μL/well of 50 mM Hepes pH 7.5, 150 mM NaCl, 15% Glycerol, 0.15% Triton X-100, 10 mM DTT for 20 minutes with shaking. 50 μL of an NS3/4a protease-specific FRET substrate (Anaspec RET SI Cat#22991) was then added to the wells at a final concentration of 15 μM. The plates were incubated at 37° C. for 20 minutes, which corresponds to a timepoint at which the protease activity is still in the linear phase. Protease activity was determined by measuring fluorescence (Excitation: 340 nm; Emission: 509 nm).
# To analyze the data, the fluorescence was plotted vs. the compound concentration, and EC50 values were determined from a 4-parameter robust fit model using GraphPad Prism software.
row,SMILES,EC50
1,COC(=O)N[C@H](C(=O)N1C[C@@H](C)C[C@H]1c1nc(-c2ccc(-c3cc(Cl)c(NC(=O)N4CCN(C5CCN(C(=O)C(C)(C)C)CC5)CC4)cc3OC(F)(F)F)cc2)c[nH]1)C(C)C [Example 4],100 to 1000 pM
2,COC(=O)N[C@H](C(=O)N1C[C@@H](OC)C[C@H]1c1nc(-c2ccc(-c3ccc(NC(=O)N4CCN(C5CCN(C(=O)C(C)(C)C)CC5)CC4)cc3OC(F)(F)F)cc2)c[nH]1)C(C)C [Example 5-1],100 to 1000 pM

# Same assay, conditions: Huh7.5 cell background, NS3-specific protease activity in lysates, 48 or 72 hours
row,SMILES,Genotype 1a (pEC50 class)
1,COC(=O)N[C@H](C(=O)N1CCC[C@H]1c1nc(-c2ccc(-c3ccc(NC(=O)N4CCC(N5CCN(C(=O)OC)CC5)CC4)cc3)cc2)c[nH]1)C(C)C [Example 3-6],A (A represents a pEC50 value between 6 and 8 (EC50 between 1 μM and 10 nM))
2,COC(=O)N[C@H](C(=O)N1CCC[C@H]1c1nc(-c2ccc(-c3ccc(NC(=O)N4CCC(N5CCN(C(=O)OC(C)(C)C)[C@H](C)C5)CC4)cc3OC(F)(F)F)cc2)c[nH]1)C(C)C [Example 3-7],B (B represents pEC50 between 8 and 9 (EC50 between 1 and 10 nM))
3,COC(=O)N[C@H](C(=O)N1CCC[C@H]1c1nc(-c2ccc(-c3ccc(NC(=O)N4CCC(N5CCN(C(=O)[C@H]6CC6(C)C)[C@H](C)C5)CC4)cc3OC(F)(F)F)cc2)c[nH]1)C(C)C [Example 3-8],B (B represents pEC50 between 8 and 9 (EC50 between 1 and 10 nM))
4,COC(=O)N[C@H](C(=O)N1C[C@@H](C)C[C@H]1c1nc(-c2ccc(-c3cc(Cl)c(NC(=O)N4CCN(C5CCN(C(=O)[C@H]6CC6(C)C)CC5)CC4)cc3OC(F)(F)F)cc2)c[nH]1)C(C)C [Example 3],"C (C represents pEC50 between and 9 and about 10, (EC50 between 1 nM and 0.1 nM))"
5,COC(=O)N[C@H](C(=O)N1C[C@@H](C)C[C@H]1c1nc(-c2ccc(-c3cc(Cl)c(NC(=O)N4CCC(N5CCN(C(=O)OC(C)(C)C)[C@@H](C)C5)CC4)cc3OC(F)(F)F)cc2)c[nH]1)C(C)C [Example 4-1],A (A represents a pEC50 value between 6 and 8 (EC50 between 1 μM and 10 nM))
6,COC(=O)N[C@H](C(=O)N1C[C@@H](C)C[C@H]1c1nc(-c2ccc(-c3cc(Cl)c(NC(=O)N4CCC(N5CCN(C(=O)[C@H]6CC6(C)C)[C@@H](C)C5)CC4)cc3OC(F)(F)F)cc2)c[nH]1)C(C)C [Example 4-2],"C (C represents pEC50 between and 9 and about 10, (EC50 between 1 nM and 0.1 nM))"
7,COC(=O)N[C@H](C(=O)N1C[C@@H](C)C[C@H]1c1nc(-c2ccc(-c3cc(Cl)c(NC(=O)N4CCC(N5CCN(C(=O)C(C)(C)C)[C@@H](C)C5)CC4)cc3OC(F)(F)F)cc2)c[nH]1)C(C)C [Example 4-3],B (B represents pEC50 between 8 and 9 (EC50 between 1 and 10 nM))
8,CNC(=O)N1CCN(C2CCN(C(=O)Nc3cc(OC(F)(F)F)c(-c4ccc(-c5c[nH]c([C@@H]6C[C@H](C)CN6C(=O)[C@@H](NC(=O)OC)C(C)C)n5)cc4)cc3Cl)CC2)C[C@@H]1C [Example 4-4],B (B represents pEC50 between 8 and 9 (EC50 between 1 and 10 nM))
9,COC(=O)N[C@H](C(=O)N1C[C@@H](C)C[C@H]1c1nc(-c2ccc(-c3cc(Cl)c(NC(=O)N4CCC(N5CCN(C(=O)C6CC6)[C@@H](C)C5)CC4)cc3OC(F)(F)F)cc2)c[nH]1)C(C)C [Example 4-5],B (B represents pEC50 between 8 and 9 (EC50 between 1 and 10 nM))
10,COC(=O)N[C@H](C(=O)N1C[C@@H](C)C[C@H]1c1nc(-c2ccc(-c3cc(F)c(NC(=O)N4CCC(N5CCN(C(=O)OC(C)(C)C)CC5)CC4)cc3OC(F)(F)F)cc2)c[nH]1)C(C)C [Example 4-6],B (B represents pEC50 between 8 and 9 (EC50 between 1 and 10 nM))
11,COC(=O)N[C@H](C(=O)N1C[C@@H](C)C[C@H]1c1nc(-c2ccc(-c3cc(F)c(NC(=O)N4CCC(N5CCN(C(=O)C(C)(C)C)CC5)CC4)cc3OC(F)(F)F)cc2)c[nH]1)C(C)C [Example 4-7],"C (C represents pEC50 between and 9 and about 10, (EC50 between 1 nM and 0.1 nM))"
12,COC(=O)N[C@H](C(=O)N1C[C@@H](C)C[C@H]1c1nc(-c2ccc(-c3cc(F)c(NC(=O)N4CCC(N5CCN(C(=O)[C@H]6CC6(C)C)CC5)CC4)cc3OC(F)(F)F)cc2)c[nH]1)C(C)C [Example 4-8],"C (C represents pEC50 between and 9 and about 10, (EC50 between 1 nM and 0.1 nM))"
13,COC(=O)N[C@H](C(=O)N1C[C@@H](C)C[C@H]1c1nc(-c2ccc(-c3cc(F)c(NC(=O)N4CCC(N5CCN(C(=O)C6CC6)CC5)CC4)cc3OC(F)(F)F)cc2)c[nH]1)C(C)C [Example 4-9],"C (C represents pEC50 between and 9 and about 10, (EC50 between 1 nM and 0.1 nM))"
14,COC(=O)N[C@H](C(=O)N1C[C@@H](C)C[C@H]1c1nc(-c2ccc(-c3ccc(NC(=O)N4CCC(N5CCN(C(=O)C(C)(C)C)CC5)CC4)cc3OC(F)(F)F)cc2)c[nH]1)C(C)C [Example 4-10],"C (C represents pEC50 between and 9 and about 10, (EC50 between 1 nM and 0.1 nM))"
15,COC(=O)N[C@H](C(=O)N1C[C@@H](C)C[C@H]1c1nc(-c2ccc(-c3ccc(NC(=O)N4CCC(N5CCN(C(=O)[C@H]6CC6(C)C)CC5)CC4)cc3OC(F)(F)F)cc2)c[nH]1)C(C)C [Example 4-11],"C (C represents pEC50 between and 9 and about 10, (EC50 between 1 nM and 0.1 nM))"
16,COC(=O)N[C@H](C(=O)N1C[C@@H](C)C[C@H]1c1nc(-c2ccc(-c3cc(Cl)c(NC(=O)N4CCC(N5CCN(C(=O)OC(C)(C)C)CC5)CC4)cc3OC(F)(F)F)cc2)c[nH]1)C(C)C [Example 4-12],B (B represents pEC50 between 8 and 9 (EC50 between 1 and 10 nM))
17,COC(=O)N[C@H](C(=O)N1C[C@@H](C)C[C@H]1c1nc(-c2ccc(-c3cc(Cl)c(NC(=O)N4CCC(N5CCN(C(=O)C(C)(C)C)CC5)CC4)cc3OC(F)(F)F)cc2)c[nH]1)C(C)C [Example 4-13],B (B represents pEC50 between 8 and 9 (EC50 between 1 and 10 nM))
18,COC(=O)N[C@H](C(=O)N1C[C@@H](C)C[C@H]1c1nc(-c2ccc(-c3cc(Cl)c(NC(=O)N4CCC(N5CCN(C(=O)[C@H]6CC6(C)C)CC5)CC4)cc3OC(F)(F)F)cc2)c[nH]1)C(C)C [Example 4-14],"C (C represents pEC50 between and 9 and about 10, (EC50 between 1 nM and 0.1 nM))"
19,COC(=O)N[C@H](C(=O)N1C[C@@H](C)C[C@H]1c1nc(-c2ccc(-c3cc(Cl)c(NC(=O)N4CCC(N5CCN(C(=O)C6CC6)CC5)CC4)cc3OC(F)(F)F)cc2)c[nH]1)C(C)C [Example 4-15],B (B represents pEC50 between 8 and 9 (EC50 between 1 and 10 nM))
20,COC(=O)N[C@H](C(=O)N1C[C@@H](C)C[C@H]1c1nc(-c2ccc(-c3cc(Cl)c(NC(=O)N4CCC(N5CCN(C(=O)C(C)(C)C)C[C@H]5C)CC4)cc3OC(F)(F)F)cc2)c[nH]1)C(C)C [Example 4-16],"C (C represents pEC50 between and 9 and about 10, (EC50 between 1 nM and 0.1 nM))"
21,COC(=O)N[C@H](C(=O)N1C[C@@H](C)C[C@H]1c1nc(-c2ccc(-c3cc(Cl)c(NC(=O)N4CCC(N5CCN(C(=O)[C@H]6CC6(C)C)C[C@H]5C)CC4)cc3OC(F)(F)F)cc2)c[nH]1)C(C)C [Example 4-17],"C (C represents pEC50 between and 9 and about 10, (EC50 between 1 nM and 0.1 nM))"
22,COC(=O)N[C@H](C(=O)N1C[C@@H](OC)C[C@H]1c1nc(-c2ccc(-c3ccc(NC(=O)N4CCN(C5CCN(C(=O)[C@H]6CC6(C)C)CC5)CC4)cc3OC(F)(F)F)cc2)c[nH]1)C(C)C [Example 5-2],"C (C represents pEC50 between and 9 and about 10, (EC50 between 1 nM and 0.1 nM))"
